Here are results for one substance from patent publication US20230383291A1, “PEPTIDE-BASED TRANSDUCTION OF NON-ANIONIC POLYNUCLEOTIDE ANALOGS FOR GENE EXPRESSION MODULATION” (FELDAN BIO INC., priority 2020, published 2023).

Data set [1] has as its system Gli1 protein. The data set can be described thus: Gli1 knock-down in DU145 cells, Western blot. The settings on record: 6 μM PMO. The class given is cell-based, Human. On the procedure: DU145 cells were trypsinized and plated (500 000 cells/well) in a 24 well-dish the day prior to the experiment. […] Cells were washed once with PBS and delivery mixes were added on cells for five minutes. Then, 2 mL of RPMI-1640 containing 10% FBS was added to the mix and removed. Untreated cells were incubated with RPMI-1640 only. Cells were incubated in fresh RPMI-1640 containing 10% FBS. Forty height hours later, medium was removed and cells were washed once with PBS prior to trypsinization. Cells were harvested, collected by centrifugation, washed, and resuspended with PBS. Then, PMO-FITC positive and PMO-FITC negative cells were sorted and collected by virtue of FACS (BD FACS Aria Fusion). FITC-positive and FITC-negative cell samples were collected by centrifugation and resuspended in 50 μL protein extraction RIPA buffer (150 mM NaCl, 1% Nonidet™ P-40, 0.1% SDS, 0.5% Sodium deoxycholate, 25 mM Tris). Total protein concentrations were measured with a BCA protein assay kit. For all conditions, 10 μg of proteins were prepared at a final volume of 40 μL with 4× Laemmeli and RIPA buffer. Protein samples were then heated at 90° C. and separated through an 8% SDS-PAGE gel. Proteins were then transferred over night (25 volts) onto a […] PVDF membrane. Membranes were blocked using a 5% bovine serum albumin, Tris Buffer Saline, 0.1% Tween® 20 solution (5% BSA/TBS-T) for an hour. After blocking, the membrane was incubated for an hour with a 5% BSA/TBS-T solution containing anti alpha-Actinin (D6F6) primary antibody at a 1:1000. Alpha-Actinin protein present in the cell lysates served as loading control. Subsequently, the membranes were incubated over night with a 5% BSA/TBS-T solution containing anti-Gli1 primary antibody diluted 1:500. The membrane was then subjected to a 1-hour incubation at 1:5000 dilution of HRP-conjugated goat anti-rabbit secondary antibody 5% BSA/TBS-T solution. Chemiluminescence detection was performed using Clarity™ Western ECL Substrate and a ChemiDoc™ XRS apparatus. Gli1 and Alpha-Actinin densitometry was assessed using ImageJ™ software. […]
A general note: A western blot detects proteins with antibodies after separation by electrophoresis.

Data set [2] has as its system Gli1 protein. Description: Gli1 knockdown in RH-30 cells, Western blot. It is filed as cell-based, Human. The settings on record: 6 μM cargo with 5 μM FSD250, 2 minutes, 24 h. As for the experimental part:
A Gli1 knock-down experiment was performed generally as described in Example 6 to compare shuttle agent-mediated transduction of an unmodified PMO versus a commercially available self-internalizing Vivo-Morpholino (VivoPMO), which is a PMO chemically modified with a terminal octa-guanidinium dendrimer to facilitate entry into cells. Briefly, RH-30 cells were contacted with a delivery mix of 6 μM of cargo (either PMO-Gli1 or VivoPMO-Gli1) in the presence or absence of 5 μM of the synthetic peptide shuttle agent FSD250 for 2 minutes in RPMI. Cells were then washed, incubated in complete medium and then collected for Gli1 protein expression analysis by Western blot after 24 h using an anti-Gli1 polyclonal Ab (Abcam ab273018, 150 kDa), an anti-GAPDH Ab (Abcam ab181602, 37 kDa), and anti-Rabbit HRP secondary Ab. […] Indeed, this is consistent with the manufacturer's recommended incubation time of 2-4 hours for VivoPMOs to achieve sufficient self-internalization via endocytosis. Regardless, the results in FIG. 10 highlight the vast difference in internalization kinetics between the slow endocytosis-dependent intracellular delivery of VivoPMOs versus the rapid and efficient PMO transduction observed using synthetic peptide shuttle agents.
Four different PMOs were designed and synthesized targeting different regions proximal to the region or start codon of the human Gli1 gene. […]

“PMO-Gli1: antisense PMO molecule designed to knock-down expression of the Gli1 protein; off-target control in the GFPd assay (antisense GTCATCGAGTTGAACATGGCGTCTC; all phosphorodiamidate morpholino (PMO))”: the Gli1 protein expression entry was “knocked-down” in the data set with Gli1 protein [1] (3.75 μM FSD250, 48 hours) and “knocked-down” with Gli1 protein [1] (FITC+ cells vs FITC− cells, 5 μM FSD250, 48 hours). The “Knockdown of Gli1 protein” value in the data set with Gli1 protein [2] is recorded as “Knockdown of Gli1 protein”.
